In ChEMBL document CHEMBL4811222, “Antitumor Activity of Asperphenin B by Induction of Apoptosis and Regulation of Glyceraldehyde-3-phosphate Dehydrogenase in Human Colorectal Cancer Cells” (J Nat Prod, 2021):
The source made the active and inactive calls. No cut-off for these calls is given here.

Experiments:
RKO [1] = test: Induction of cell cycle arrest in human RKO cells assessed as upregulation of p-Cdc2 at Y15 residue expression measured after 24 hrs by Western blot analysis; type: functional, cell-based; settings: dose 1.25-5 µM
RKO [2] = test: Induction of cell cycle arrest in human RKO cells assessed as accumulation at sub-G1 phase at 5 uM after 24 hrs by RNase A/propidium iodide staining based flow cytometric analysis (reference value: 0.40 %); type: functional
RKO [3] = test: Suppression of GAPDH protein expression in human RKO cells after 24 hrs by Western blotting analysis; type: functional, cell-based; settings: dose 2.5-10 µM
RKO [4] = test: Induction of cell cycle arrest in human RKO cells assessed as accumulation at sub-G1 phase at 2.5 uM after 12 hrs by RNase A/propidium iodide staining based flow cytometric analysis (reference value: 0.89 %); type: functional
HCT-116 [5] = test: Upregulation of E-cadherin expression in […] at 3 to 6 uM after 24 hrs by Western blotting analysis; type: functional, cell-based; settings: dose 3-6 µM
RKO [6] = test: Induction of cell cycle arrest in human RKO cells assessed as accumulation at G2/M phase at 2.5 uM after 12 hrs by RNase A/propidium iodide staining based flow cytometric analysis (reference value: 24.63 %); type: functional
SW480 = test: Antiproliferative activity against human SW480 cells assessed as inhibition of cell growth incubated for 72 hrs by SRB assay; type: functional, cell-based; settings: SW480, 72 h
HCT-116 [7] = test: Suppression of GAPDH expression in […] at 3 to 6 uM after 24 hrs by Western blotting analysis; type: functional, cell-based; settings: dose 3-6 µM
RKO [8] = test: Induction of cell cycle arrest in human RKO cells assessed as accumulation at G0/G1 phase at 2.5 uM after 48 hrs by RNase A/propidium iodide staining based flow cytometric analysis (reference value: 60.58 %); type: functional
[9] = biological target: Glyceraldehyde-3-phosphate dehydrogenase (Homo sapiens) (UniProt P04406); test: Inhibition of GAPDH activity (unknown origin) after 1 hr; settings: dose 0.01-10 µM
HCT-116 [10] = test: Antiinvasive activity against human HCT116 cells implanted in nude mouse assessed as inhibition of liver cells invasion after 24 hrs by transwell assay; type: functional, cell-based; settings: dose 3-6 µM
RKO [11] = test: Antiproliferative activity against human RKO cells assessed as inhibition of cell growth incubated for 72 hrs by SRB assay; type: functional, cell-based
RKO [12] = test: Induction of cell cycle arrest in human RKO cells assessed as upregulation of cyclin B1 expression measured after 24 hrs by Western blot analysis; type: functional, cell-based; settings: dose 1.25-5 µM
RKO [13] = test: Induction of cell cycle arrest in human RKO cells assessed as accumulation at sub-G1 phase at 2.5 uM after 36 hrs by RNase A/propidium iodide staining based flow cytometric analysis (reference value: 0.89 %); type: functional
RKO [14] = test: Induction of apoptosis in human RKO cells assessed as increase in cleaved caspase 3 expression at 2.5 uM measured upto 48 hrs by Western blotting analysis; type: functional, cell-based; settings: time hrs <=48
RKO [15] = test: Induction of cell cycle arrest in human RKO cells assessed as upregulation of phospho-Chk2 expression at 1.25 to 5 uM measured after 24 hrs by Western blot analysis; type: functional, cell-based; settings: dose 1.25-5 µM
RKO [16] = test: Induction of cell cycle arrest in human RKO cells assessed as accumulation at sub-G1 phase at 2.5 uM after 24 hrs by RNase A/propidium iodide staining based flow cytometric analysis (reference value: 0.89 %); type: functional
RKO [17] = test: Induction of cell cycle arrest in human RKO cells assessed as upregulation of phospho-Chk1 expression at 1.25 to 5 uM measured after 24 hrs by Western blot analysis; type: functional, cell-based; settings: dose 1.25-5 µM
RKO [18] = test: Induction of apoptosis in human RKO cells assessed as total apoptotic cells at 5 uM after 48 hrs by Annexin V/PI staining based flow cytometric analysis; type: functional
RKO [19] = test: Induction of apoptosis in human RKO cells assessed as total apoptotic cells at 10 uM after 48 hrs by Annexin V/PI staining based flow cytometric analysis; type: functional
HCT-116 [20] = test: Antimigratory activity against human HCT116 cells implanted in nude mouse assessed as inhibition of liver cells migration after 24 hrs by wound healing assay; type: functional, cell-based; settings: dose 3-6 µM
RKO [21] = test: Induction of cell cycle arrest in human RKO cells assessed as accumulation at S phase at 2.5 uM after 36 hrs by RNase A/propidium iodide staining based flow cytometric analysis (reference value: 13.33 %); type: functional
HCT-116 [22] = test: Downregulation of Snail expression in […] at 3 to 6 uM after 24 hrs by Western blotting analysis; type: functional, cell-based; settings: dose 3-6 µM
CCD-18Co = test: Antiproliferative activity against human CCD-18Co cells assessed as inhibition of cell growth incubated for 72 hrs by SRB assay; type: cell-based
RKO [23] = test: Induction of apoptosis in human RKO cells assessed as total apoptotic cells at 2.5 uM after 48 hrs by Annexin V/PI staining based flow cytometric analysis; type: functional
RKO [24] = test: Induction of apoptosis in human RKO cells assessed as modulation of p53 expression level after 48 hrs by Western blotting analysis; type: functional, cell-based; settings: dose 2.5-10 µM
RKO [25] = test: Induction of cell cycle arrest in human RKO cells assessed as accumulation at G2/M phase at 2.5 uM after 24 hrs by RNase A/propidium iodide staining based flow cytometric analysis (reference value: 24.38 %); type: functional
RKO [26] = test: Induction of cell cycle arrest in human RKO cells assessed as accumulation at G0/G1 phase at 2.5 uM after 36 hrs by RNase A/propidium iodide staining based flow cytometric analysis (reference value: 60.58 %); type: functional
RKO [27] = test: Antiproliferative activity against human RKO cells over expressing GAPDH at 1 to 8 uM after 72 hrs by SRB assay; type: functional, cell-based; settings: dose 1-8 µM
RKO [28] = test: Induction of apoptosis in human RKO cells assessed as decrease in survivin expression at 2.5 uM by Western blotting analysis; type: functional, cell-based; settings: time 12-48 hrs, TDE = time-dependent effect
RKO [29] = test: Induction of apoptosis in human RKO cells assessed as increase in p53 level at 2.5 uM measured upto 48 hrs by Western blotting analysis; type: functional, cell-based; settings: time hrs <=48
RKO [30] = test: Induction of cell cycle arrest in human RKO cells assessed as accumulation at sub-G1 phase at 1.25 uM after 24 hrs by RNase A/propidium iodide staining based flow cytometric analysis (reference value: 0.40 %); type: functional
RKO [31] = test: Induction of cell cycle arrest in human RKO cells assessed as accumulation at G0/G1 phase at 5 uM after 24 hrs by RNase A/propidium iodide staining based flow cytometric analysis (reference value: 51.49 %); type: functional
RKO [32] = test: Induction of cell cycle arrest in human RKO cells assessed as accumulation at G2/M phase at 5 uM after 24 hrs by RNase A/propidium iodide staining based flow cytometric analysis (reference value: 24.38 %); type: functional
RKO [33] = test: Induction of cell cycle arrest in human RKO cells assessed as accumulation at S phase at 5 uM after 24 hrs by RNase A/propidium iodide staining based flow cytometric analysis (reference value: 24.20 %); type: functional
RKO [34] = test: Induction of cell cycle arrest in human RKO cells assessed as inactivation of Cdc25C protein at 1.25 to 5 uM measured after 24 hrs by Western blot analysis; type: functional, cell-based; settings: dose 1.25-5 µM
RKO [35] = test: Induction of apoptosis in human RKO cells assessed as increase in cleaved PARP expression at 2.5 uM measured upto 48 hrs by Western blotting analysis; type: functional, cell-based; settings: time hrs <=48

Sequence of Glyceraldehyde-3-phosphate dehydrogenase (Homo sapiens) (P04406 2-335 limits assumed): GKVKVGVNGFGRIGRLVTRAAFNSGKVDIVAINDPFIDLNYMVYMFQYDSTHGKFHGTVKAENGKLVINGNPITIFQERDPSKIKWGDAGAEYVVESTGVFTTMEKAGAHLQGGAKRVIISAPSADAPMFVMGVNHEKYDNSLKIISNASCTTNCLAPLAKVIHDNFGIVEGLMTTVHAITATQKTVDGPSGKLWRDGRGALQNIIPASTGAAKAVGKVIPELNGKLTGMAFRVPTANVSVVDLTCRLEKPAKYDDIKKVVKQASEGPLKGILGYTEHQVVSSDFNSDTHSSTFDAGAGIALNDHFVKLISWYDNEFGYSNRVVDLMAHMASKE

- IC50 (SW480): 2370 nM
- inhibition [9]: Dose-Dependent Effect
Structure (SMILES): CCCCCCCCC[C@@H](O)CC(=O)N[C@@H](CC(N)=O)C(=O)N[C@@H](CCC(N)=O)C(=O)N[C@H](CC(=O)c1cc(C)cc(O)c1C(=O)c1c(O)cccc1O)CC(C)C
- Activity (RKO [1]): Dose-Dependent Effect
- Activity (RKO [2]): 1.1%
- Activity (RKO [3]): Dose-Dependent Effect
- Activity (RKO [4]): 0.88%
- Activity (HCT-116 [5]): Active
- Activity (RKO [6]): 27.91%
- Activity (HCT-116 [7]): Active
- Activity (RKO [8]): 30.27%
- inhibition (HCT-116 [10]): Dose-Dependent Effect
- Activity (RKO [11]): Dose-Dependent Effect
- IC50 (RKO [11]): 930 nM
- Activity (RKO [12]): Dose-Dependent Effect
- Activity (RKO [13]): 3.74%
- Activity (RKO [14]): Active
- Activity (RKO [15]): Active
- Activity (RKO [16]): 1.22%
- Activity (RKO [17]): Active
- Activity (RKO [18]): 36.58%
- Activity (RKO [19]): 51.04%
- inhibition (HCT-116 [20]): Dose-Dependent Effect
- Activity (RKO [21]): 10.45%
- Activity (HCT-116 [22]): Active
- IC50 (CCD-18Co): 39100 nM
- Activity (RKO [23]): 15.14%
- Activity (RKO [24]): Dose-Dependent Effect
- Activity (RKO [25]): 44.01%
- Activity (RKO [26]): 22.38%
- Activity (RKO [27]): Active
- Activity (RKO [28]): Tde
- Activity (RKO [29]): Active
- Activity (RKO [30]): 0.41%
- Activity (RKO [31]): 25.55%
- Activity (RKO [32]): 51.77%
- Activity (RKO [33]): 22.13%
- Activity (RKO [34]): Active
- Activity (RKO [35]): Active
